Two molecules from patent publication US20260055106A1, “PARG INHIBITORY COMPOUND” (FORX THERAPEUTICS AG, priority 2021, published 2026) can be followed below.

Usually EC50 stands for the concentration needed to bring the measured effect to its halfway point. As usually defined, the IC50 is the point on the concentration scale where inhibition reaches its midpoint. As a reminder, the kinetic solubility is solubility judged after dilution from a stock solution rather than from solid.

One series deals with U2OS. The experiment in a line: Cellular viability assay (U2OS). The note with it: Homo sapiens, 96 hours incubation, Cell Titer-Glo, read-out: EC50 determined in U2OS cells, Cellular viability assay. The format is cell-based. As to the method: (§1) NCI-H460 and MDA-MB-436 as PARG-inhibition sensitive cell lines, and U2OS as PARG-inhibition insensitive cell line, were plated at 1000 cells/well, 5000 cells/well and 2000 cells/well, respectively, in 96-well white plates with clear flat bottom. After 24 hours, the compounds were added with the Tecan digital dispenser (D300e), in duplicates. The outer wells of the plate were excluded. After 96 hours of incubation, 150 μl of the growth medium were removed and 50 μl of Cell Titer-Glo (Promega) were added per well. Following an incubation of 10 minutes, luminescence was read using a plate reader (Tecan) for NCI-H460 and U2OS cell lines, and a 2104 EnVision plate reader for MDA-MB-436. Averaged values of the samples were normalized to DMSO treated control samples. Curves were fit as % of the control vs. log of the compound concentration using a 4 parameter log-logistic function: […]

In a further series the test system is NCI-H460. The experiment in a line: Cellular viability assay (NCI-H460). The settings on record: 96 hours incubation, Cell Titer-Glo, read-out: EC50 determined in NCIH-460 cells, Cellular viability assay. The format is cell-based. As to the method: as §1
For orientation: ATP-based viability assays read luminescence as a measure of living cells.

A further series concerns the target T1, human PARG (Homo sapiens, UniProt Q86W56, A967T/C963S/D927K/H446G/I916T/L447S/L473S/M841I/N479S/R811K/S802A/S858P/T924D).
T1 construct: human PARG (448-976 [H446G, L447S, L473S, N479S, S802A, R811K, M8411, S858P, 1916T, T924D, D927K, C963S, A967T]); 6His-TwinStrep (protease-cleavable) (N, cleaved yes); host or cells: E. coli BL21 (DE3)
The experiment in a line: PARG enzymatic IC50 assay. The settings on record: 2 hours incubation with enzyme; substrate ADP-ribose-pNP; absorbance 405 nm; read-out: IC50 determined in PARG enzymatic assay (PARG protein and 2 hours incubation). The format is biochemical. Here is the method:
A codon optimized gene encoding human PARG (448-976 [H446G, L447S, L473S, N479S, S802A, R811K, M8411, S858P, 1916T, T924D, D927K, C963S, A967T]) was synthesized by Genscript, and cloned into pET15b (NcoI/BamHI) with an N-terminal, Thrombin protease cleavable 6His-TwinStrep tag. Expression of the protein in E. coli BL21 (DE3) was induced by addition of 0.2 mM IPTG to a shake flask culture grown to OD600=0.8 at 37° C. Growth was allowed to continue at 30° C. for a further 20 hours before harvesting by centrifugation and storage of the cell pellet at −80° C. […]
PARG enzyme as incubated with compound or vehicle (DMSO) for 15 minutes or 2 hours in a 384 well plate. After adding the PARG substrate ADP-ribose-pNP, the plate was read for absorbance intensity at 405 nm. The vehicle (DMSO) with high absorbance intensity represents no inhibition of enzymatic reaction while the low control (no enzyme) with low absorbance intensity represents full inhibition of enzymatic reaction. […]
The protocol that was used for enzyme reaction and detection is as follows: • 1. […] Read the plate on a plate reader (e.g., Spark Tecan).

The next series relates to MDA-MB-436. The experiment in a line: Cellular viability assay (MDA-MB-436). The settings on record: Homo sapiens, 96 hours incubation, Cell Titer-Glo, read-out: EC50 determined in MDA-MB-436 cells, Cellular viability assay. The format is cell-based. As to the method:
as §1

The next series concerns MDA-MB-436 tumor cells. The experiment in a line: Cell-derived xenograft (CDX) study, MDA-MB-436 xenograft model. The format is in vivo, Mus musculus. The note with it: BALB/c nude mice. As to the method: • Species: Mus musculus • Strain: BALB/c nude • Age: 6-9 weeks • Sex: Female • Body weight: 17-20 g • Animal supplier: Beijing Vital River Laboratory Animal Technology Co., Ltd • Certificate No: 20230209Abzz0619000498
The MDA-MB-436 tumor cells (ATCC, cat #HTB-130) were maintained in vitro as a monolayer culture in L-15 medium supplemented with 10% fetal bovine serum, 10 μg/mL Insulin, 16 μg/mL glutathione and 1% Antibiotic-Antimycotic at 37° C. in an atmosphere of 0% CO2 in air. The cells growing in an exponential growth phase were harvested and counted for tumor inoculation.
BALB/c nude female mice were inoculated subcutaneously at the right flank with MDA-MB-436 tumor cells (10×10^6/mouse) in 0.2 mL of PBS with Matrigel (1:1) for tumor development. The animals were randomized and the treatment was started on day 25 after tumor inoculation when the average tumor volume reached approximately 126 mm^3. Each group consisted of 10 tumor-bearing mice. The compound of formula (I) was administrated to the mice according to the predetermined regimen as shown in the experimental design table 3
Tumor sizes were measured twice weekly in two dimensions using a caliper, and the volumes were expressed in mm^3. The tumor sizes were then used for the calculations of TGI values.
TGI was calculated for each group using the formula: TGI (%)=[1−(Ti−T0)/(Vi−V0)]×100; Ti is the average tumor volume of a treatment group on a given day, T0 is the average tumor volume of the treatment group on the first day of treatment, Vi is the average tumor volume of the vehicle control group on the same day with Ti, and V0 is the average tumor volume of the vehicle group on the first day of treatment.
A one-way ANOVA was performed to compare the tumor volume among groups.

The target in a further series is T2, PARG (Homo sapiens, UniProt Q86W56).
T2 construct: endogenous in cells; host or cells: U2OS
The series can be described thus: Cellular PAR chain assay. The settings on record: U2OS cells. The format is cell-based. As to the method: The ability of compounds to inhibit PARG in response to DNA damage, was assessed with U2OS cells pretreated with the compounds for 1 hour, following a 1-hour treatment with or without the DNA alkylating agent temozolomide (TMZ). […] The cells were incubated for 2 hours at room temperature with a mouse monoclonal antibody against poly (ADP) ribose (PAR) polymer. The cells were washed and incubated with an anti-mouse Alexa-488 conjugated secondary antibody for 1 hour at room temperature. Propidium iodide staining was used to determine DNA content in the cells (staining at 4° C. overnight). The fluorescence intensity of the cells was assessed by flow cytometry (Cytoflex from Beckmann) and the percentage of PAR chain positive cells (gated in relation to TMZ+DMSO treated control) was determined. PAR chain positive cells % were fit against the concentration of the compound using a 4 parameter log-logistic function, generating PAR chain EC50 values: […]

A further series is described as follows: Kinetic solubility assay. The format is physicochemical. The note with it: buffer, aqueous buffer, kinetic from dmso stock, pH 7.4, shake flask, room temperature, HPLC-UV. As to the method: The Kinetic solubility assay employs the shake flask method followed by HPLC-UV analysis. For exemplary compounds, the kinetic solubility was measured according to the following protocol: • 1. Samples were weighed and dissolved in 100% DMSO to make a stock solution of 10 mM. About 100 μL of stock solution is needed to cover this assay. • 2. Test compounds and controls (10 mM in DMSO, 10 μL/tube) were added into the buffer (490 μL/well) which were placed in a Mini-UniPrep filter. The buffer was prepared as the customer's requirement. • 3. The kinetic solubility samples were vortexed for 2 minutes. • 4. The solubility solutions were shaked in an orbital shaker for 24 hr at room temperature. • 5. 200 μL of each solubility solution were transferd into a 96-deep well for analysis when the samples were directly filtered by the syringeless filter device. • 6. The test compound concentration of the filtrate were determined using HPLC-UV. • 7. Three UV standard solutions were injected into HPLC from low to high concentrations, followed by testing of the K.S. supernatant. Testing samples were injected in duplicate.

The structures appear in SMILES notation. Counter-ions that a name gives are not always drawn. Like-named read-outs stand apart in the source and are kept apart here.

T2 sequence (Q86W56 whole entry): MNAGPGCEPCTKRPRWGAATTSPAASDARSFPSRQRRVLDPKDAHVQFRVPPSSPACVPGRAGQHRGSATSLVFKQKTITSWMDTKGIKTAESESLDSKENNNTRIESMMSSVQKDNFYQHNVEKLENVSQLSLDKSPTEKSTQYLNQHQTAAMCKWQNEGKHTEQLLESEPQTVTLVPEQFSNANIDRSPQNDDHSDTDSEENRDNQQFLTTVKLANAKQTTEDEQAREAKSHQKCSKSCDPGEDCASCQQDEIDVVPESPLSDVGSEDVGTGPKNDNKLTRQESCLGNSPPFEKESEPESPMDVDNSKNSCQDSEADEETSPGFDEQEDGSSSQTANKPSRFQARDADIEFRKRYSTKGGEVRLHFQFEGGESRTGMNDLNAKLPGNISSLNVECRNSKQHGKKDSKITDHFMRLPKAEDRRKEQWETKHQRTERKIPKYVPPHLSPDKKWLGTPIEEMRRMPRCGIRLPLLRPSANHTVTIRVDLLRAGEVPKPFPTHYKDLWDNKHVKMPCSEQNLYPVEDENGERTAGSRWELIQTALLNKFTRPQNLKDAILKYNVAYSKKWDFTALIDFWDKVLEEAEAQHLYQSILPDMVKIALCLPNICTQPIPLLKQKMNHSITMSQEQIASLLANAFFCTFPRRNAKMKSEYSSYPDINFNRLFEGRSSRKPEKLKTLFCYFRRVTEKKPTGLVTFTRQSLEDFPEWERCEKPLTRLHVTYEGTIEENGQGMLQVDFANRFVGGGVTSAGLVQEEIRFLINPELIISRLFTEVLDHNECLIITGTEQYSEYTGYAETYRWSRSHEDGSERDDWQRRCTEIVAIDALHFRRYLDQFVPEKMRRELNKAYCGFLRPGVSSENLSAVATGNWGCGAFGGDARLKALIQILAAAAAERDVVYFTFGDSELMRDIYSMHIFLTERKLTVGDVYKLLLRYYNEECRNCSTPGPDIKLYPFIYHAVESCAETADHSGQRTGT
T1 sequence (Q86W56 446-976 H446G/L447S/L473S/N479S/S802A/R811K/M841I/S858P/I916T/T924D/D927K/C963S/A967T): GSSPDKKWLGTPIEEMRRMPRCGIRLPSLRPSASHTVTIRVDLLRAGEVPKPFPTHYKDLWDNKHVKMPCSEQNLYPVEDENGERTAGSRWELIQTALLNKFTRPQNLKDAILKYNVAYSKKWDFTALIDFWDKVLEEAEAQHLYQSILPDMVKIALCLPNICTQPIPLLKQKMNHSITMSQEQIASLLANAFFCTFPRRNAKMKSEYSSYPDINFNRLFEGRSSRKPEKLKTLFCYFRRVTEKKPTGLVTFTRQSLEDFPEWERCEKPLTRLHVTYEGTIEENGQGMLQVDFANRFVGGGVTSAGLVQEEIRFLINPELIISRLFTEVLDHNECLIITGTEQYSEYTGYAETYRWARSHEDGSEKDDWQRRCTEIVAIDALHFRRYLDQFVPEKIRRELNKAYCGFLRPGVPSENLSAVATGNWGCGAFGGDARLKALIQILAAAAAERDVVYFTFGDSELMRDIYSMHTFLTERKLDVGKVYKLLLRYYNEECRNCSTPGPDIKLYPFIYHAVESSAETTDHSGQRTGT

As for `C[C@H]1CN(c2cc(S(=O)(=O)NC3(C)CC3)cn3c(-c4nnc(C(F)F)s4)ncc23)C[C@H](C)N1` (single isomer, unassigned) [Example 1b], the EC50 was > 2 µM in the series with U2OS; 0.022 µM in the series with NCI-H460 (listed as 1b fraction B); 0.021 µM in the series on NCI-H460 (Homo sapiens, NCI-H460, 96 h).

Turning to `C[C@H]1CN(c2cc(S(=O)(=O)NC3(C)CC3)cn3c(-c4nnc(C(F)F)s4)ncc23)C[C@H](C)N1` [Example 1, 3-(5-(difluoromethyl)-1,3,4-thiadiazol-2-yl)-8-((3S,5S)-3,5-dimethylpiperazin-1-yl)-N-(1-methylcyclopropyl)imidazo[1,5-a]pyridine-6-sulfonamide formate], the EC50 in the series with U2OS is 11.9 µM; with MDA-MB-436, 0.017 µM; at PARG (with treatment of TMZ, read-out: EC50 determined in Cellular PAR chain assay (conditions with treatment of TMZ)) it was < 0.003 µM; at PARG (without treatment of TMZ, read-out: EC50 determined in Cellular PAR chain assay (conditions without treatment of TMZ)) it was < 0.003 µM; in the series on NCI-H460 (Homo sapiens, NCI-H460, 96 h), < 0.019 µM. On human PARG, the IC50 came to 0.011 µM. The “Tumor volume on day 28” value with MDA-MB-436 tumor cells (100 mg/kg PO QD x 28 days, Mean ± SEM) came to 27 ± 9 mm^3. Further, the TGI in the series on MDA-MB-436 tumor cells (100 mg/kg PO QD x 28 days, day 28) is 118.20%. In addition, in the series with MDA-MB-436 tumor cells (100 mg/kg, MDA-MB-436 xenograft), the anti-tumor response result is reported as “tumor regression seen in all mice”. In addition, in “Kinetic solubility assay”, the kinetic solubility at 24 h stood at 152 µM.
